Measured values: patent US20090314217A1, “APPARATUS AND METHOD FOR TREATING NON-HUMAN MAMMALS” (Under The Boardwalk Properties 8 (Proprietary) Limited, priority 2006, published 2009)
Like-named read-outs stand apart in the source and are kept apart here.

How the values were obtained:
[1] = Haematocrit in horses with billiary treated in apparatus 10; format: in vivo, horse; conditions: after two treatment sessions, increased from 31

O=[O+][O-] [ozone]
haematocrit [1]: 38%
discomfort during the treatment (five horses, during treatment): none of the horses appeared to be uncomfortable
respiration of the horses during treatment (five horses, during treatment): increased
motion marks in the rest of the ride (horse Moniq, after treatment on day 1 and day 2, motion 1 throughout day 1): no motion marks
muscle spasms found by physiotherapist (horse Moniq, day 2 and day 3 of race, lumbar spasms confirmed on day 1 before treatment): no muscle spasms
creatine kinase (horse Moniq, treated on day 1 and day 2 of race, lowered from 3873): 706
rider's report on second and third days of the race (horse Ophelia, dehydrated and fatigued on day 1, treated after first and second day): felt very strong and consistent
performance on third day of the race (horse Shamon, severe fatigue by day 2, treated in the afternoon of day 2, finished fifteenth): rode very well
CK and AST levels (horses that presented symptoms of tying-up): marked decrease
occurrence of muscle spasms (horses treated transdermally with ozone): significantly reduced
energy levels and stamina (horses with general fatigue from constant hard work and competition): marked improvement
motion marks or stiffness during the race (mare Pauli, pre-treatments before the race, history of gluteal muscle spasms and tying up, finished fourteenth): no motion marks or stiffness
owner's report on second and third days of the race (mare Viola, treated on first and second day): felt much stronger and looser
aspertine amino transferase (mare Viola, treated on first and second day, lowered from more than 2000): 1814 U/L
creatine kinase (mare Viola, tying up on day 1, treated on first and second day, lowered from 5896): 1599 IU/K
average heart-rate during treatment (non-accustomed horses, enclosure 42-45 °C, oxygen flow 1 l/min to ozonator): 42 beats per minute
muscle stiffness caused by long periods of intense exercise (preliminary study on endurance horses): benefit to reduce muscle stiffness
